# Reference: ChEMBL document CHEMBL1275423 (Antimicrob Agents Chemother, 2008)
# Calls of active or inactive are those of the source. The rule behind the calls is not given here.
# Columns and labels:
# Assay type in all cases: functional, organism-based
# [1] = test system: Bacillus anthracis; assay: Antimicrobial activity against Bacillus anthracis MurA1 AS clone 2G2 assessed as growth inhibition in presence of xylose by antisense-induced hypersensitive testing
# [2] = test system: Bacillus anthracis; assay: Antimicrobial activity against Bacillus anthracis metRS1 AS 1H1 assessed as growth inhibition in presence of xylose by antisense-induced hypersensitive testing
# [3] = test system: Bacillus anthracis; assay: Antimicrobial activity against Bacillus anthracis MurA1 AS clone 2G2 assessed as growth inhibition in absence of xylose by antisense-induced hypersensitive testing
# [4] = Bacillus anthracis, MurA1 AS clone 2G2, read-out: IC50
compound,measurement,setting,value
CCN1CCN(C(=O)N[C@@H](C(=O)N[C@@H]2C(=O)N3[C@@H]2SC(C)(C)[C@@H]3C(=O)O)c2ccccc2)C(=O)C1=O,inhibition,[1],Active
O=C(O)c1ccc(OCc2nc3ccccc3[nH]2)c(OCc2ccc(Cl)cc2Cl)c1,inhibition,[2],Active
C[C@@H]1O[C@@H]1P(=O)(O)O [FOSFOMYCIN],IC50,[1]; [4],18 µg/mL
same,IC50,[3]; [4],126 µg/mL
Cc1onc(-c2ccccc2)c1C(=O)N[C@@H]1C(=O)N2[C@@H]1SC(C)(C)[C@@H]2C(=O)O,inhibition,[1],Active
CN[C@H](CC(C)C)C(=O)N[C@H]1C(=O)N[C@@H](CC(N)=O)C(=O)N[C@H]2C(=O)N[C@H]3C(=O)N[C@H](C(=O)N[C@H](C(=O)O)c4cc(O)cc(O)c4-c4cc3ccc4O)[C@H](O)c3ccc(c(Cl)c3)Oc3cc2cc(c3O[C@@H]2O[C@H](CO)[C@@H](O)[C@H](O)[C@H]2O[C@H]2C[C@](C)(N)[C@H](O)[C@H](C)O2)Oc2ccc(cc2Cl)[C@H]1O,inhibition,[1],Active
CN(C)[C@@H]1C(O)=C(C(N)=O)C(=O)[C@@]2(O)C(O)=C3C(=O)c4c(O)cccc4[C@@](C)(O)[C@H]3C[C@@H]12 [TETRACYCLINE],IC50,[1],Not Active
same,IC50,[3],Not Active
